One assay deals with CDK2 (cyclin A) (Homo sapiens (Human), UniProt P24941). Description: Z'-LYTE kinase assay. The format is biochemical. The procedure:
IC50 values of compounds against CDK2 (cyclin A) were determined by Z'-LYTETM. […] The following equations were used for Z'-LYTETM Screening Assay Data Analysis.

In a further assay the target is CDK1 (cyclin B) (Homo sapiens (Human), UniProt P06493). Description: Z'-LYTE kinase assay. In kind it is biochemical. The source says: The following equations were used for Z′-LYTE™ Screening Assay Data Analysis.
CDK1 (cyclin B), sequence (P06493 whole entry): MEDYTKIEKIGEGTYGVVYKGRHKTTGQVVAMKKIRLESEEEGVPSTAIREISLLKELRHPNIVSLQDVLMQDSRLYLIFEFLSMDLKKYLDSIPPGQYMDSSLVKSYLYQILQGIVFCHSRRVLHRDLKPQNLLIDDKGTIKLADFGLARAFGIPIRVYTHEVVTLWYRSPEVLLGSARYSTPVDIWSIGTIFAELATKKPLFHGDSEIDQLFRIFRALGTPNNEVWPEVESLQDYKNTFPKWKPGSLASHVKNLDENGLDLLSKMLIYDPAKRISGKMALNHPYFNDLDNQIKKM
CDK1 (cyclin B), sequence (P14635 whole entry partner): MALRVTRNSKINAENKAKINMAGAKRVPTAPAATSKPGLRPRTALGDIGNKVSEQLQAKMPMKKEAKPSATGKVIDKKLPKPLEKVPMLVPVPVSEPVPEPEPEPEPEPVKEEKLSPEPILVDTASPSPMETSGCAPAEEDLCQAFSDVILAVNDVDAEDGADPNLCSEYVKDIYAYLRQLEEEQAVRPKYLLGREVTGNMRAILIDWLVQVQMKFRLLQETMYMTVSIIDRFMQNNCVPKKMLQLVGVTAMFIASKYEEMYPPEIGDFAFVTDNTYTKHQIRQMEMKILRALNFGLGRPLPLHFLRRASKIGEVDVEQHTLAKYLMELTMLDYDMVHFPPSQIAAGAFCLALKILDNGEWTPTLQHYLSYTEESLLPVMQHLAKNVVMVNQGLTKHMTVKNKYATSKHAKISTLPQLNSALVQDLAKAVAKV
The test system of the next assay is MCF-7. The assay is described as follows: Cancer cell proliferation assay, single agent. In kind it is cell-based. Conditions: Homo sapiens.
Another assay has as its system DU4475. The assay is described as follows: Cancer cell proliferation assay, single agent. Conditions: Homo sapiens. The format is cell-based.
For a further assay, the target named is CDK6 (Homo sapiens (Human), UniProt Q00534). Description: biochemical. The format is biochemical.
The next assay addresses CDK4 (Homo sapiens (Human), UniProt P11802). Description: In vitro kinase inhibition, luminescence (ADP-Glo) with retinoblastoma substrate. In kind it is biochemical.
The next assay deals with FMS kinase (Homo sapiens (Human), UniProt P07333). The assay is described as follows: LanthaScreen kinase assay (ATP, fluorescent-PolyGT substrate, TR-FRET). In kind it is biochemical.
FMS kinase, sequence (P07333 20-972): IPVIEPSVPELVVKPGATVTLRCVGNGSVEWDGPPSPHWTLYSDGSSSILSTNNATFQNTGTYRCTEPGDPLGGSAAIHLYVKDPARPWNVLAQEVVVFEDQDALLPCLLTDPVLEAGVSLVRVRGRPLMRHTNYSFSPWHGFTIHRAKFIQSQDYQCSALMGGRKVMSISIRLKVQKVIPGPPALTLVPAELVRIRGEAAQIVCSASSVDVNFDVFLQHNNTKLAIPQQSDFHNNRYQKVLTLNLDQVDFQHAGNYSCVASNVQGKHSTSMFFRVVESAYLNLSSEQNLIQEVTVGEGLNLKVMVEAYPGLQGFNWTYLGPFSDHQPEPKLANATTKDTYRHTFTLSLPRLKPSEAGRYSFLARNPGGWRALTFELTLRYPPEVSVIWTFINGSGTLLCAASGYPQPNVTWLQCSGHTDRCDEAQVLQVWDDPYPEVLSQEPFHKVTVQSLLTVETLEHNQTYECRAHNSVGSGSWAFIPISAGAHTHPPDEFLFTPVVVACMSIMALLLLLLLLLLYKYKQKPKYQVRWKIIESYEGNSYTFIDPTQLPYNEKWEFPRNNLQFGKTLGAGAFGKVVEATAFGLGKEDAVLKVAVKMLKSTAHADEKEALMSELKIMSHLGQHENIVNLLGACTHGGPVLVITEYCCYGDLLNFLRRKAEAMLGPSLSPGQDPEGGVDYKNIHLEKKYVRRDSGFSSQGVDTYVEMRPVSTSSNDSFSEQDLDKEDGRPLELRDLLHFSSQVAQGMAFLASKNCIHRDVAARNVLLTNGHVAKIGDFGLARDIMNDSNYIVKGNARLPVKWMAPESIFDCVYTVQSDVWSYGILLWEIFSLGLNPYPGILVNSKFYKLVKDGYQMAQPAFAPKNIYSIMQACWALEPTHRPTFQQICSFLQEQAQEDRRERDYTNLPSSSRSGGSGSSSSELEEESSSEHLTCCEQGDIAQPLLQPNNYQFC
The mark [1] stands for this setting: MCF7, MCF-7 cells, treated for 24-168 hours, read-out: IC50 (nM) MCF-7.
Setting [2] is: DU-4475, DU4475 cells, treated for 24-168 hours, read-out: IC50 (nM) DU4475.
Setting [3] is: DU-4475, read-out: IC50 (nM) DU4475.
Setting [4] is: MCF7, read-out: IC50 (nM) MCF-7.

The values that follow come from patent publication US11174252B2, “Heterocyclic compounds as kinase inhibitors” (priority 2018, dated 2021).

Read-outs that look alike come from different tables or passages of the source.

CDK4, sequence (P11802 whole entry): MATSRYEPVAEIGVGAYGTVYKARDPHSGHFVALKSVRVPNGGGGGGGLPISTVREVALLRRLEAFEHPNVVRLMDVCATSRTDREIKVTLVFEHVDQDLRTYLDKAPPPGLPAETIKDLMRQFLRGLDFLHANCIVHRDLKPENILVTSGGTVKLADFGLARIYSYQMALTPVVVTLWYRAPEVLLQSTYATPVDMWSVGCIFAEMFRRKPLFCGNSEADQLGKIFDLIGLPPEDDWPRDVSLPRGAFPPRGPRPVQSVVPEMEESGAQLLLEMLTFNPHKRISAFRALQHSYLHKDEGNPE
CDK4, sequence (P24385 whole entry partner): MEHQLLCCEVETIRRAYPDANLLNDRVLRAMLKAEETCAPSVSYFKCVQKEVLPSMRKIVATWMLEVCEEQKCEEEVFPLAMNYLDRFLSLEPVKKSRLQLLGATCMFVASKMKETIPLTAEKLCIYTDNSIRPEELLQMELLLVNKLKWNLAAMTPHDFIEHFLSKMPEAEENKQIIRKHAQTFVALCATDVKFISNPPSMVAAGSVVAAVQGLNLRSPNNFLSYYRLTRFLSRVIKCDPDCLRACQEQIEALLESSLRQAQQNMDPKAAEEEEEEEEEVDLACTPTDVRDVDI

One may read the IC50 as the point on the concentration scale where inhibition reaches its midpoint. In the case of `CC(C)N1CCOc2c(F)cc(-c3nc(Nc4ccc(S(=O)(=O)NCCN(C)C)cc4)ncc3F)cc21` [Compound 513, N-(2-(dimethylamino)ethyl)-4-((5-fluoro-4-(8-fluoro-4-isopropyl-3,4-dihydro-2H-benzo[b][1,4]oxazin-6-yl)pyrimidin-2-yl)amino)benzenesulfonamide], the half-maximal inhibitory concentration (IC50) is 3 nM against CDK2 (cyclin A); under 1 nM on CDK1 (cyclin B); 17 nM in the assay with MCF-7 (setting [1]); 50 nM with DU4475 (setting [2]); 8 nM at CDK6; 2 nM against CDK4.
`CC(C)N1CCOc2c(F)cc(-c3nc(Nc4ccc(N5CCC(CN)CC5)cn4)ncc3F)cc21` [Compound 518, N-(5-(4-(aminomethyl)piperidin-1-yl)pyridin-2-yl)-5-fluoro-4-(8-fluoro-4-isopropyl-3,4-dihydro-2H-benzo[b][1,4]oxazin-6-yl)pyrimidin-2-amine]: the IC50 turned out to be 560 nM against CDK2 (cyclin A); 1190 nM against CDK1 (cyclin B); 1020 nM in the assay with MCF-7 (setting [1]); 1330 nM in the assay with DU4475 (setting [3]); 28 nM on CDK6; 4 nM against CDK4.
Consider `CC(C)N1CCOc2c(F)cc(-c3nc(Nc4cc(C5CCN(C)CC5)n[nH]4)ncc3F)cc21` [Compound 499, 5-fluoro-4-(8-fluoro-4-isopropyl-3,4-dihydro-2H-benzo[b][1,4]oxazin-6-yl)-N-(3-(1-methylpiperidin-4-yl)-1H-pyrazol-5-yl)pyrimidin-2-amine], for which the 50% inhibitory concentration (IC50) was found to be 19 nM on CDK2 (cyclin A), 69 nM against CDK1 (cyclin B), 175 nM in the assay on MCF-7 (setting [1]) and 345 nM with DU4475 (setting [3]).
On to `CC(C)CN1CCOc2c(F)cc(-c3nc(Nc4ccc(C5CCN(C)CC5)cn4)ncc3F)cc21` [Compound 479, 5-fluoro-4-(8-fluoro-4-isobutyl-3,4-dihydro-2H-benzo[b][1,4]oxazin-6-yl)-N-(5-(1-methylpiperidin-4-yl)pyridin-2-yl)pyrimidin-2-amine], for which the IC50 against CDK2 (cyclin A) is 44 nM; on CDK1 (cyclin B), 213 nM; in the assay on MCF-7 (setting [4]), 240 nM; against CDK6, 5 nM; against FMS kinase, 2600 nM; on CDK4, 2.5 nM.
For `CC(C)N1CCOc2c(F)cc(-c3nc(Nc4cc(C5CCN(C)CC5)no4)ncc3F)cc21` [Compound 495, N-(5-fluoro-4-(8-fluoro-4-isopropyl-3,4-dihydro-2H-benzo[b][1,4]oxazin-6-yl)pyrimidin-2-yl)-3-(1-methylpiperidin-4-yl)isoxazol-5-amine], the IC50 against CDK2 (cyclin A) stood at 2 nM; against CDK1 (cyclin B), 5 nM; in the assay with MCF-7 (setting [4]) it was 110 nM; in the assay with DU4475 (setting [3]), 310 nM.
`CC(C)N1CCOc2c(F)cc(-c3nc(Nc4ccc(S(N)(=O)=O)cc4)ncc3F)cc21` [Compound 507, 4-((5-fluoro-4-(8-fluoro-4-isopropyl-3,4-dihydro-2H-benzo[b][1,4]oxazin-6-yl)pyrimidin-2-yl)amino)benzenesulfonamide]: the IC50 against CDK2 (cyclin A) was 3.2 nM; on CDK1 (cyclin B) it was 1.3 nM; with MCF-7 (setting [1]), under 5 nM; with DU4475 (setting [2]), 20 nM; against CDK6 it was 13 nM; against CDK4 it was 6 nM.
In the case of `COCCNS(=O)(=O)c1ccc(Nc2ncc(F)c(-c3cc(F)c4c(c3)N(C(C)C)CCO4)n2)cc1` [Compound 523, 4-(5-fluoro-4-(8-fluoro-4-isopropyl-3,4-dihydro-2H-benzo[b][1,4]oxazin-6-yl)pyrimidin-2-ylamino)-N-(2-methoxyethyl)benzenesulfonamide], the IC50 against CDK2 (cyclin A) worked out at 74 nM; at CDK1 (cyclin B) it was 21 nM; with MCF-7 (setting [1]), 55 nM; in the assay on DU4475 (setting [2]) it was 75 nM; against CDK6 it was 51 nM; on CDK4, 20 nM.
